In patent US8148371B2, “Adenine compound and use thereof” (Dainippon Sumitomo Pharma Co., Ltd., priority 2002, dated 2012) one finds minimal effective concentration and Residual rate data, which are given here for 24 molecules.

SMILES strings stand for the structures. Like-named read-outs stand apart in the source and are kept apart here. Marks after values point to notes of the source that are not given here.

For one data set, the system named is cells of mouse spleen. In words: cells. The data set is classed as cell-based, C3H/HeJ mouse. To be noted: Mus musculus, 24 h, read-out: Minimum effective concentration (interferon inducing activity).
The subject of the next data set is cells of rat spleen. Put plainly: cells. The data set is classed as cell-based, SD rat. To be noted: 24 h, read-out: Minimum effective concentration (interferon inducing activity).
The test system of the next data set is plasma esterase. Conditions: rat plasma, 37° C., 15 minutes.
Data set [1] can be described thus: Metabolic stability on liver S9 of rat. To be noted: 37° C.
The mark [2] stands for this setting: rat liver S9, test compound 1 μM.

Method for plasma esterase: The compound of the present invention is added to the serum solution, and the mixture is incubated at 37±0.5° C. for 5 minutes to 2 hours. By quantitatively analyzing at the definite interval the amount of the compound of the present invention remaining in the serum solution with HPLC (high performance liquid chromatography), etc., the constant of quenching velocity calculated and the half life is calculated.
The serum herein means the supernatant fraction obtained by excluding hemocytes and blood coagulation factor from blood by centrifugation, etc. The serum diluted with buffer, etc. can be used.
The metabolic stability of the test compound was presented by the residual amount (%) per the concentration of pre-metabolization.

Take `CCCCOc1nc(N)c2nc(O)n(Cc3cccc(C(=O)O)c3)c2n1` [Comparative example 1, 2-Butoxy-8-hydroxy-9-(3-carboxybenzyl)adenine, reference compound]: the minimal effective concentration with cells of mouse spleen worked out at 0.003 µM; in the data set on cells of rat spleen, 0.01 µM.

Turning to `CCCCOc1nc(N)c2nc(O)n(Cc3ccc(C(=O)O)o3)c2n1` [Comparative example 3, 2-Butoxy-8-hydroxy-9-(5-carboxyfurfuryl)adenine, reference compound], the minimal effective concentration with cells of mouse spleen was found to be 0.1 µM; in the data set with cells of rat spleen it was 0.01 µM.

As for `CCCCOc1nc(N)c2nc(O)n(Cc3cccc(CC(=O)O)c3)c2n1` [Comparative example 5, 2-Butoxy-8-hydroxy-9-(3-carboxymethylbenzyl)adenine, reference compound], the minimal effective concentration was 0.1 µM with cells of mouse spleen and 0.01 µM with cells of rat spleen.

For the molecule `CCCCOc1nc(N)c2nc(O)n(Cc3ccc(CC(=O)O)cc3)c2n1` [Comparative example 6, 2-Butoxy-8-hydroxy-9-(4-carboxymethylbenzyl)adenine, reference compound], the minimal effective concentration in the data set on cells of mouse spleen was 0.03 µM; in the data set on cells of rat spleen it was 0.01 µM.

As for `Nc1nc(CC(=O)O)nc2c1nc(O)n2Cc1ccccc1` [Comparative example 8, 9-Benzyl-2-carboxymethyl-8-hydroxyadenine, reference compound], the minimal effective concentration in the data set on cells of mouse spleen amounted to 10 µM; in the data set on cells of rat spleen, 3 µM.

On to `Cc1ccc(Cn2c(O)nc3c(N)nc(NCCO)nc32)cn1` [Comparative example 10, 8-Hydroxy-2-(2-hydroxyethylamino)-9-{(6-methyl-3-pyridyl)methyl}adenine, reference compound], for which the minimal effective concentration in the data set on cells of mouse spleen amounted to 1 µM.

Regarding `Cc1ccc(Cn2c(O)nc3c(N)nc(OCCO)nc32)cn1` [Comparative example 11, 8-Hydroxy-2-(2-hydroxyethoxy)-9-{(6-methyl-3-pyridyl)methyl}adenine, reference compound], in the data set on cells of mouse spleen, the minimal effective concentration is 0.1 µM.

Regarding `Nc1nc(SCC(=O)O)nc2c1nc(O)n2Cc1ccccc1` [Comparative example 12, 9-Benzyl-8-hydroxy-2-(calboxylmethyl)thioadenine, reference compound], the minimal effective concentration with cells of mouse spleen was found to be 10 µM; with cells of rat spleen it was 0.3 µM.

With `Nc1nc(SCCC(=O)O)nc2c1nc(O)n2Cc1ccccc1` [Comparative example 13, 9-Benzyl-8-hydroxy-2-(2-calboxylethyl)thioadenine, reference compound], the values for the minimal effective concentration in the data set with cells of mouse spleen and in the data set with cells of rat spleen were 10 µM and 0.3 µM, respectively.

As for `CCCCOc1nc(N)c2nc(O)n(Cc3cccc(C(=O)OCCO)c3)c2n1` [Example 6, 2-Butoxy-8-hydroxy-9-{3-(2-hydroxyethoxycarbonyl)benzyl}adenine], the minimal effective concentration in the data set on cells of mouse spleen was under 0.001 µM. In the data set with plasma esterase (test compound 10 μM), this molecule returned a Residual rate of 14%.

As for `CCCCOc1nc(N)c2nc(O)n(Cc3cccc(C(=O)OCCN(C)C)c3)c2n1` [Example 7, 2-Butoxy-8-hydroxy-9-{3-(2-dimethylaminoethoxycarbonyl)benzyl}adenine], the minimal effective concentration in the data set with cells of mouse spleen is under 0.001 µM. This molecule also had a Residual rate in the data set on plasma esterase (test compound 10 μM) of 1%.

In the case of `CCCCOc1nc(N)c2nc(O)n(Cc3cccc(CC(=O)OC)c3)c2n1` [Example 19, 2-Butoxy-8-hydroxy-9-(3-methoxycarbonylmethylbenzyl)adenine], the minimal effective concentration was under 0.001 µM in the data set on cells of mouse spleen and 0.0003 µM with cells of rat spleen.

Consider `CCCCOc1nc(N)c2nc(O)n(Cc3ccc(N4CCC(C(=O)OCC)CC4)nc3)c2n1` [Example 24, 2-Butoxy-8-hydroxy-9-{6-(4-ethoxycarbonyl-1-piperidyl)-3-pyridylmethyl}adenine], for which the minimal effective concentration was under 0.001 µM in the data set on cells of mouse spleen and 0.0003 µM in the data set with cells of rat spleen. Besides, the Residual rate in the data set with plasma esterase (test compound 10 μM) is given as 7%.

Turning to `CCCCOc1nc(N)c2nc(O)n(Cc3ccc(N4CCCC(C(=O)OCC)C4)nc3)c2n1` (stereo not drawn) [Example 25, 2-Butoxy-8-hydroxy-9-{6-(3-ethoxycarbonyl-1-piperidyl)-3-pyridylmethyl}adenine], the minimal effective concentration in the data set on cells of mouse spleen is 0.003 µM. In the data set on plasma esterase (test compound 10 μM), this molecule returned a Residual rate of 16%.

For the molecule `COC(=O)CNc1nc(N)c2nc(O)n(Cc3ccc(C)nc3)c2n1` [Example 32, 8-Hydroxy-2-methoxycarbonylmethylamino-9-{(6-methyl-3-pyridyl)methyl}adenine], the minimal effective concentration with cells of mouse spleen was found to be 0.01 µM. The molecule further had a Residual rate in the data set with plasma esterase (test compound 10 μM) of 0%.

For the molecule `CC(=O)OCCNc1nc(N)c2nc(O)n(Cc3ccc(C)nc3)c2n1` [Example 33, 2-(2-Acetoxyethylamino)-8-hydroxy-9-{(6-methyl-3-pyridyl)methyl}adenine], the minimal effective concentration in the data set on cells of mouse spleen was determined as 0.1 µM. Also, in data set [1] (rat liver S9, test compound 10 μM (*)), the Residual rate is given as 2* %.

`COC(=O)OCCOc1nc(N)c2nc(O)n(Cc3ccc(C)nc3)c2n1` [Example 38, 2-{2-(Methoxycarbonyloxy)ethoxy}-8-hydroxy-9-{(6-methyl-3-pyridyl)methyl}adenine]: the minimal effective concentration with cells of mouse spleen came out at 0.01 µM. Also, in the data set on plasma esterase (test compound 10 μM), the Residual rate is on record as 2%.

Consider `CCNC(=O)CSc1nc(N)c2nc(O)n(Cc3ccccc3)c2n1` [Example 50, 9-Benzyl-2-(ethylcarbamoylmethyl)thio-8-hydroxyadenine], for which the minimal effective concentration in the data set on cells of mouse spleen was 0.1 µM. This molecule came in with a Residual rate in data set [1] (setting [2]) of 7%.

As for `Nc1nc(SCC(=O)N2CCCCC2)nc2c1nc(O)n2Cc1ccccc1` [Example 51, 9-Benzyl-8-hydroxy-2-(1-piperidinocarbonylmethyl)thioadenine], the minimal effective concentration with cells of mouse spleen was determined as 0.1 µM. Further, the Residual rate in data set [1] (setting [2]) is on record as 0%.

As for `CCOC(=O)CC(=O)CSc1nc(N)c2nc(O)n(Cc3ccccc3)c2n1` [Example 58, 9-Benzyl-2-(ethoxycarbonylmethylcarbonylmethyl)thio-8-hydroxyadenine], the minimal effective concentration in the data set on cells of mouse spleen came to 0.1 µM. The Residual rate in the data set on plasma esterase (test compound 10 μM) worked out at 0%.

With `CCCCOc1nc(N)c2nc(O)n(Cc3ccc(CC(=O)OCCN4CCOCC4)cc3)c2n1` [Example 73, 2-Butoxy-8-hydroxy-9-{4-(2-morpholinoethoxycarbonyl)methylbenzyl}adenine], the minimal effective concentration in the data set with cells of rat spleen came to 0.0003 µM. Further, the Residual rate in the data set on plasma esterase (test compound 1 μM (*)) is 4* %; in data set [1] (setting [2]), 0%.

As for `CCCCOc1nc(N)c2nc(O)n(Cc3ccc(CC(=O)SC)cc3)c2n1` [Example 74, 2-Butoxy-8-hydroxy-9-{4-(S-methylthiocarbonyl)methylbenzyl}adenine], the minimal effective concentration with cells of rat spleen was determined as 0.001 µM. Besides, the Residual rate is on record as 0* % in the data set on plasma esterase (test compound 1 μM (*)) and 7% in data set [1] (setting [2]).

Consider `CCCCOc1nc(N)c2[nH]c(=O)n(Cc3cccc(CC(=O)OCC)c3)c2n1` [Example 80, 2-Butoxy-9-(3-ethoxycarbonylmethylbenzyl)-8-hydroxyadenine], for which the minimal effective concentration in the data set on cells of rat spleen is 0.001 µM. Moreover, the Residual rate with plasma esterase (test compound 1 μM (*)) is listed as 0* %; in data set [1] (setting [2]) it was 0%.

For the molecule `COC(=O)c1cccc(CSc2nc(N)c3nc(O)n(Cc4ccccc4)c3n2)c1` [Example 103, 9-Benzyl-8-hydroxy-2-[(3-methoxycarbonylbenzyl)thio]adenine], the minimal effective concentration in the data set with cells of rat spleen was 0.01 µM. For the same molecule, the values for the Residual rate (in the data set with plasma esterase (test compound 1 μM (*)); in data set [1] (setting [2])) were 6* % and 7%, respectively.
